Tested on: NF-κ B activation
Test: Inhibitory activity of NF-κB activation, luciferase reporter assay under TNF-α stimulation in HepG2
Type: cell-based, human
Conditions: HepG2, TNF-α 40 ng/ml, 4 hours; for inhibition at 1 µg/mL / inhibition at 10 µg/mL: Homo sapiens, read-out: Inhibitory rate against NF-κB activation (%)
Method: Measurement of Inhibitory Activity of NF-κB activation
Using a transfection reagent (Effectene; QIAGEN), the human hepatoma cell strain HepG2 was transfected with a plasmid (pNF κ B-Luc Reporter Plasmid; […]) integrated with an oligonucleotide having five tandem copies of NF-κ B binding sequences([…]) on a upstream region of firefly luciferase gene(Luc) according to the QIAGEN's protocol, and the cells were incubated for 6 to 24 hours. After addition of TNF-α (40 ng/ml) in the presence or absence of a test compound, the cells were incubated for 4 hours, and intracellular luciferase activity was measured by using PicaGene LT (TOYO INK MFG Co., Ltd.) and a chemical luminescence measurement apparatus ([…]luor Plus; TECAN). The inhibitory ratio was measured as a ratio relative to the value of the luciferase activity in the absence of the test compound.

Row | Compound | inhibition at 1 µg/mL (Drug concentration at 1 μg/mL) [%] | inhibition at 10 µg/mL (Drug concentration at 10 μg/mL) [%] | Inhibitory rate against NF-κB activation (%) (Drug concentration at 1 μg/mL) | Inhibitory rate against NF-κB activation (%) (Drug concentration at 10 μg/mL)
1 | CC(=O)Oc1ccccc1C(=O)Nc1cc(C(F)(F)F)cc(C(F)(F)F)c1 [compound 1, 2-acetoxy-N-[3,5-bis(trifluoromethyl)phenyl]benzamide] | 90.9 | 97.1 | – | –
2 | O=C(Nc1cc(C(F)(F)F)cc(C(F)(F)F)c1)c1ccccc1O [compound 2] | – | – | 93.3 | 95.6
3 | O=C(Nc1cc(C(F)(F)F)cc(C(F)(F)F)c1)c1cc(F)ccc1O [compound 3] | – | – | 81.5 | 94.3
4 | CC(=O)Oc1ccc(Cl)cc1C(=O)Nc1cc(C(F)(F)F)cc(C(F)(F)F)c1 [compound 5] | – | – | 96.5 | 99.2
5 | O=C(Nc1cc(C(F)(F)F)cc(C(F)(F)F)c1)c1cc([N+](=O)[O-])ccc1O [compound 8, N-[3,5-bis(trifluoromethyl)phenyl]-2-hydroxy-5-nitrobenzamide] | 92 | 99.2 | – | –
6 | N#Cc1ccc(O)c(C(=O)Nc2cc(C(F)(F)F)cc(C(F)(F)F)c2)c1 [compound 9, N-[3,5-Bis(trifluoromethyl)phenyl]-5-cyano-2-hydroxybenzamide] | 92.2 | 99.6 | – | –
7 | Cc1ccc(O)c(C(=O)Nc2cc(C(F)(F)F)cc(C(F)(F)F)c2)c1 [compound 10] | – | – | 95.8 | 99.4
8 | CC(C)(C)c1ccc(O)c(C(=O)Nc2cc(C(F)(F)F)cc(C(F)(F)F)c2)c1 [compound 11, N-[3,5-Bis(trifluoromethyl)phenyl]-5-[(1,1-dimethyl)ethyl]-2-hydroxybenzamide] | 92.9 | 98.3 | – | –
9 | CC(=O)c1ccc(O)c(C(=O)Nc2cc(C(F)(F)F)cc(C(F)(F)F)c2)c1 [compound 12, 5-Acetyl-N-[3,5-bis(trifluoromethyl)phenyl]-2-hydroxybenzamide] | 86.3 | 99.2 | – | –
10 | CC(O)c1ccc(O)c(C(=O)Nc2cc(C(F)(F)F)cc(C(F)(F)F)c2)c1 (stereo not shown) [compound 13] | – | – | 76.8 | 96.0
11 | CON=C(C)c1ccc(O)c(C(=O)Nc2cc(C(F)(F)F)cc(C(F)(F)F)c2)c1 [compound 14] | – | – | 94.7 | 98.3
12 | CC(=NOCc1ccccc1)c1ccc(O)c(C(=O)Nc2cc(C(F)(F)F)cc(C(F)(F)F)c2)c1 [compound 15] | – | – | 94.5 | 99.2
13 | N#CC(C#N)=Cc1ccc(O)c(C(=O)Nc2cc(C(F)(F)F)cc(C(F)(F)F)c2)c1 [compound 16, N-[3,5-Bis(trifluoromethyl)phenyl]-5-(2,2-dicyanoethen-1-yl)-2-hydroxybenzamide] | 42.7 | 99.4 | – | –
14 | COC(=O)C(C#N)=Cc1ccc(O)c(C(=O)Nc2cc(C(F)(F)F)cc(C(F)(F)F)c2)c1 [compound 17, 3-({N-[3,5-Bis(trifluoromethyl)phenyl]carbamoyl}-4-hydroxyphenyl)-2-cyanoacrylic acid methyl ester] | – | – | 74.9 | 99.1
15 | N#CC(=Cc1ccc(O)c(C(=O)Nc2cc(C(F)(F)F)cc(C(F)(F)F)c2)c1)C(=O)O [compound 18] | – | – | 59.7 | 98.5
16 | C[Si](C)(C)C#Cc1ccc(O)c(C(=O)Nc2cc(C(F)(F)F)cc(C(F)(F)F)c2)c1 [compound 20, N-[3,5-bis(trifluoromethyl)phenyl]-2-hydroxy-5-[(trimethylsilyl)ethynyl]benzamide] | 91.1 | 94.9 | – | –
17 | C#Cc1ccc(O)c(C(=O)Nc2cc(C(F)(F)F)cc(C(F)(F)F)c2)c1 [compound 21] | – | – | 53.3 | 90.1
18 | O=C(Nc1cc(C(F)(F)F)cc(C(F)(F)F)c1)c1cc(CCc2ccccc2)ccc1O [compound 24] | – | – | 92.3 | 98.3
19 | O=C(Nc1cc(C(F)(F)F)cc(C(F)(F)F)c1)c1cc(C(F)(F)F)ccc1O [compound 25] | – | – | 96.4 | 99.6
20 | O=C(Nc1cc(C(F)(F)F)cc(C(F)(F)F)c1)c1cc(C(F)(F)C(F)(F)F)ccc1O [compound 26] | – | – | 93.3 | 95.4

Source: US20080234233A1, “MEDICAMENT FOR TREATMENT OF NEURODEGENERATIVE DISEASES” (INSTITUTE OF MEDICINAL MOLECULAR DESIGN INC., priority 2002, published 2008)
